For 29 molecules, activity results are on record in patent US20130172345A1, “1-ACYL-4-(PHENOXY, BENZYLOXY, OR PHENYLAMINO)-1,2,3,4-TETRAHYDROQUINOLINE DERIVATIVES” (KOWA COMPANY, LTD., priority 2007, published 2013).

Structures can show the parent of a compound that is named as a salt.

Assay [1] has as its system HepG2 cells originating from human liver cancer. As to the kind of experiment: EPO production in HepG2 cells (EPO ELISA of culture supernatant, 4% oxygen, 48 hrs). The class given is cell-based. To be noted: test compound 3 μM, oxygen 4%, non-stimulated state = 100%, read-out: EPO production amount, % of control (3 μM). As for the experimental part:
HepG2 cells originating from human liver cancer were seeded at a density of 1×10^4 cells per well on a 24-well plate by using minimum essential medium (MEM, manufactured by Sigma) comprising 10% bovine fetal serum. Next day, the medium was exchanged with Dulbecco's modified eagle medium (DMEM, manufactured by Sigma) comprising 10% bovine fetal serum lacking phenol red. Then, the test compound dissolved in DMSO was added thereto to obtain the final concentration of 3 μM or 10 μM while having 400 μl of the medium per well. The cells were incubated for 48 hrs in a CO2 incubator which had been adjusted to have oxygen concentration of 4%, followed by collecting the culture supernatant. The EPO concentration in the culture supernatant was immediately measured by using EPO ELISA kit (manufactured by Roche Diagnostics K.K.). Specific procedures were carried out according to the manufacturer's protocol included in the kit.
When EPO production amount in non-stimulated state, i.e., without addition of any compound, was 100%, the EPO production amount induced by each compound was calculated (% of control).
A general note: An ELISA detects its analyte on a solid surface through an enzyme-linked reagent.

Assay [2] concerns K562 cells, human proerythroblast cells. As to the kind of experiment: Hemoglobin production in K562 cells (fluorescence of the porphyrin ring). To be noted: 144 h, test compound 6 μM, 3+3 days, non-stimulated state = 100%, read-out: production amount of hemoglobin, % of control (6 μM). Format: cell-based. The method in brief:
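K562 cells at 1×10^5 cells/mL in RPMI-1640 with 10% FBS, exposed to compound 3 days, medium exchanged, then 3 more days at 37 °C, 5% CO2. Hemoglobin from 3×10^5 cells measured as porphyrin fluorescence after boiling 30 min in 2 M oxalic acid; expressed as % of untreated control.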

Take `CC(=O)N1c2ccccc2C(Nc2ccc(C(C)C)cc2)CC1C` (stereo not shown) [Compound 21, 1-acetyl-4-[(4-isopropylphenyl)amino]-2-methyl-1,2,3,4-tetrahydroquinoline]: in assay [1], the activity at 3 µM worked out at 231%. Moreover, in assay [2], the activity at 6 µM was determined as 301%.

Regarding `CC(=O)N1c2ccccc2C(Nc2ccc(CO)cc2)CC1C` (stereo not shown) [Compound 38, 1-acetyl-4-[(4-hydroxymethylphenyl)amino]-2-methyl-1,2,3,4-tetrahydroquinoline], the activity at 3 µM in assay [1] came out at 201%. Further, in assay [2], the activity at 6 µM is 190%.

Consider `CC(=O)N1c2ccccc2C(Nc2ccc(NS(C)(=O)=O)cc2)CC1C` (stereo not shown) [Compound 39, 1-acetyl-4-[(4-methanesulfonylamidephenyl)amino]-2-methyl-1,2,3,4-tetrahydroquinoline], for which the activity at 3 µM in assay [1] was 131%. Also, in assay [2], the activity at 6 µM was 327%.

As to `CC(=O)N1c2ccc(N3CCOCC3)cc2C(Nc2ccc(Cl)cc2)CC1C` (stereo not shown) [Compound 40, 1-acetyl-4-[(4-chlorophenyl)amino]-2-methyl-6-morpholino-1,2,3,4-tetrahydroquinoline.hydrochloride], the activity at 3 µM in assay [1] came to 144%. Besides, the activity at 6 µM in assay [2] is 256%.

Consider `CC(=O)N1c2ccc(C(=O)O)cc2C(Nc2ccc(Cl)cc2)CC1C` (stereo not shown) [Compound 42, 1-acetyl-4-[(4-chlorophenyl)amino]-2-methyl-1,2,3,4-tetrahydroquinoline-6-carboxylic acid], for which the activity at 3 µM in assay [1] stood at 102%. Also, the activity at 6 µM in assay [2] was determined as 303%.

`CC(=O)N1c2cc(N3CCOCC3)ccc2C(Nc2ccc(Cl)cc2)CC1C` (stereo not shown) [Compound 44, 1-acetyl-4-[(4-chlorophenyl)amino]-2-methyl-7-morpholino-1,2,3,4-tetrahydroquinoline]: the activity at 3 µM in assay [1] is 301%. The activity at 6 µM in assay [2] stood at 162%.

On to `CC(=O)N1c2ccc(NS(C)(=O)=O)cc2C(Nc2ccc(Cl)cc2)CC1C` (stereo not shown) [Compound 45, 1-acetyl-4-[(4-chlorophenyl)amino]-2-methyl-6-methanesulfonylamino-1,2,3,4-tetrahydroquinoline], for which, in assay [1], the activity at 3 µM was found to be 286%. Further, in assay [2], the activity at 6 µM is 387%.

With `CC(=O)N1c2ccccc2C(N(C)c2ccccc2)CC1C` (stereo not shown) [Compound 46, 1-acetyl-4-(N-methyl-N-phenylamino)-2-methyl-1,2,3,4-tetrahydroquinoline], the activity at 3 µM in assay [1] came out at 391%. Moreover, in assay [2], the activity at 6 µM is 326%.

Take `CC1CC(Nc2ccccc2)c2ccccc2N1C(=O)C1CC1` (stereo not shown) [Compound 47, 1-cyclopropanecarbonyl-2-methyl-4-phenylamino-1,2,3,4-tetrahydroquinoline]: the activity at 3 µM in assay [1] worked out at 292%. In addition, the activity at 6 µM in assay [2] was determined as 701%.

Consider `CCOC(=O)c1ccc2c(c1)C(Oc1ccc(F)cc1)CC(C)N2C(C)=O` (stereo not shown) [Compound 53, ethyl 1-acetyl-4-(4-fluorophenoxy)-2-methyl-1,2,3,4-tetrahydroquinoline-6-carboxylate], for which the activity at 3 µM in assay [1] amounted to 134%. Besides, the activity at 6 µM in assay [2] came to 307%.

On to `CNC(=O)N1c2ccc(F)cc2C(Nc2ccc(F)cc2)CC1C` (stereo not shown) [Compound 65, 6-fluoro-4-[(4-fluorophenyl)amino]-2-methyl-1-N-methylcarbamoyl-1,2,3,4-tetrahydroquinoline], for which the activity at 3 µM in assay [1] stood at 414%. Also, the activity at 6 µM in assay [2] turned out to be 461%.

Take `COCc1ccc(NC2CC(C)N(C(C)=O)c3ccccc32)cc1` (stereo not shown) [Compound 69, 1-acetyl-4-[(4-methoxymethylphenyl)amino]-2-methyl-1,2,3,4-tetrahydroquinoline]: the activity at 3 µM in assay [1] came to 150%. The activity at 6 µM in assay [2] worked out at 407%.

In the case of `CC(=O)N1c2ccccc2C(Nc2ccc(CC(=O)O)cc2)CC1C` (stereo not shown) [Compound 71, 1-acetyl-4-[(4-carboxymethylphenyl)amino]-2-methyl-1,2,3,4-tetrahydroquinoline], the activity at 3 µM in assay [1] is 149%. Moreover, the activity at 6 µM in assay [2] was found to be 150%.

Turning to `CC(=O)N1c2ccccc2C(Nc2ccccc2N2CCOCC2)CC1C` (stereo not shown) [Compound 72, 1-acetyl-2-methyl-4-[(2-morpholinophenyl)amino]-1,2,3,4-tetrahydroquinoline], the activity at 3 µM in assay [1] came to 243%. Further, in assay [2], the activity at 6 µM was 577%.

As to `CC(=O)N1c2ccc(Br)cc2C(Nc2ccc(Cl)cc2)CC1C` (stereo not shown) [Compound 74, 1-acetyl-6-bromo-4-[(4-chlorophenyl)amino]-2-methyl-1,2,3,4-tetrahydroquinoline], in assay [1], the activity at 3 µM is 398%. Besides, in assay [2], the activity at 6 µM was determined as 375%.

As to `CC(=O)N1c2ccccc2C(Nc2ccc(CC(N)=O)cc2)CC1C` (stereo not shown) [Compound 75, 1-acetyl-4-[(4-carbamoylmethylphenyl)amino]-2-methyl-1,2,3,4-tetrahydroquinoline], the activity at 3 µM in assay [1] turned out to be 346%. In addition, the activity at 6 µM in assay [2] was determined as 282%.

In the case of `CC(=O)N1c2ccccc2C(Nc2ccc(N3CCNCC3)cc2)CC1C` (stereo not shown) [Compound 76, 1-acetyl-2-methyl-4-[(4-piperazinylphenyl)amino]-1,2,3,4-tetrahydroquinoline], in assay [1], the activity at 3 µM was found to be 227%. The activity at 6 µM in assay [2] was found to be 185%.

For the molecule `CC(=O)N1c2ccc(N3CCN(C(=O)C4CCCCC4)CC3)cc2C(Nc2ccc(Cl)cc2)CC1C` (stereo not shown) [Compound 85, 1-acetyl-4-[(4-chlorophenyl)amino]-6-[(4-cyclohexylcarbonyl)piperazino]-2-methyl-1,2,3,4-tetrahydroquinoline], the activity at 3 µM in assay [1] turned out to be 147%. In addition, the activity at 6 µM in assay [2] came out at 189%.

For `CC(=O)N1c2ccc(C(N)=O)cc2C(Nc2ccc(N3CCOCC3)cc2)CC1C` (stereo not shown) [Compound 92, 1-acetyl-2-methyl-4-[(4-morpholinophenyl)amino]-1,2,3,4-tetrahydroquinoline-6-carboxamide], the activity at 3 µM in assay [1] is 192%. The activity at 6 µM in assay [2] came to 128%.

`CC(=O)N1c2ccc(N)cc2C(Nc2ccc(Cl)cc2)CC1C` (stereo not shown) [Compound 95, 1-acetyl-6-amino-4-[(4-chlorophenyl)amino]-2-methyl-1,2,3,4-tetrahydroquinoline]: in assay [1], the activity at 3 µM was 213%. The activity at 6 µM in assay [2] is 158%.

In the case of `CCOC(=O)Nc1ccc2c(c1)C(Nc1ccc(Cl)cc1)CC(C)N2C(C)=O` (stereo not shown) [Compound 97, 1-acetyl-4-[(4-chlorophenyl)amino]-2-methyl-1,2,3,4-tetrahydroquinoline-6-ethylcarbamate], the activity at 3 µM in assay [1] was determined as 264%. Moreover, the activity at 6 µM in assay [2] came to 553%.

For `CCOC(=O)c1ccc2c(c1)C(Nc1ccc(CC#N)cc1)CC(C)N2C(C)=O` (stereo not shown) [Compound 103, ethyl 1-acetyl-4-[(4-cyanomethylphenyl)amino]-2-methyl-1,2,3,4-tetrahydroquinoline-6-carboxylate], in assay [1], the activity at 3 µM was found to be 108%. Besides, the activity at 6 µM in assay [2] amounted to 485%.

On to `CC(=O)N1c2ccc(C(N)=O)cc2C(Nc2ccc(CC#N)cc2)CC1C` (stereo not shown) [Compound 104, 1-acetyl-4-[(4-cyanomethylphenyl)amino]-2-methyl-1,2,3,4-tetrahydroquinoline-6-carboxamide], for which, in assay [1], the activity at 3 µM stood at 204%. Further, in assay [2], the activity at 6 µM is 536%.

Regarding `CC(=O)N1c2cc(NS(C)(=O)=O)ccc2C(Nc2ccc(Cl)cc2)CC1C` (stereo not shown) [Compound 107, 1-acetyl-4-[(4-chlorophenyl)amino]-7-methanesulfonylamino-2-methyl-1,2,3,4-tetrahydroquinoline.hydrochloride], in assay [1], the activity at 3 µM was determined as 130%. Moreover, in assay [2], the activity at 6 µM was determined as 139%.

Consider `CC(=O)N1c2ccc(N3CCN(C(=O)C(C)C)CC3)cc2C(Nc2ccc(NS(C)(=O)=O)cc2)CC1C` (stereo not shown) [Compound 111, 1-acetyl-6-[(4-isopropylcarbonyl)piperazino]-4-[(4-methanesulfonylaminophenyl)amino]-2-methyl-1,2,3,4-tetrahydroquinoline], for which the activity at 3 µM in assay [1] turned out to be 126%. For the same molecule, the activity at 6 µM in assay [2] amounted to 46%.

On to `CC(=O)N1c2ccc(C(=O)N(C)C)cc2C(Nc2ccc(Cl)cc2)CC1C` (stereo not shown) [Compound 113, 1-acetyl-4-[(4-chlorophenyl)amino]-N,N,2-trimethyl-1,2,3,4-tetrahydroquinoline-6-carboxamide], for which the activity at 3 µM in assay [1] is 112%. Further, the activity at 6 µM in assay [2] amounted to 163%.

Regarding `CNC(=O)c1ccc2c(c1)C(Nc1ccc(Cl)cc1)CC(C)N2C(C)=O` (stereo not shown) [Compound 114, 1-acetyl-4-[(4-chlorophenyl)amino]-N,2-dimethyl-1,2,3,4-tetrahydroquinoline-6-carboxamide], the activity at 3 µM in assay [1] came to 198%. Also, the activity at 6 µM in assay [2] came to 152%.

For the molecule `CC(=O)N1c2ccc(-c3nnn[nH]3)cc2C(Nc2ccc(Cl)cc2)CC1C` (stereo not shown) [Compound 119, 1-acetyl-4-[(4-chlorophenyl)amino]-2-methyl-6-(1H-tetrazol-5-yl)-1,2,3,4-tetrahydroquinoline], the activity at 3 µM in assay [1] stood at 125%. For the same molecule, the activity at 6 µM in assay [2] was 124%.

With `CCOC(=O)Cc1ccc(NC2CC(C)N(C(C)=O)c3ccc(F)cc32)cc1` (stereo not shown) [Compound 122, 1-acetyl-4-[(4-ethoxycarbonylmethylphenyl)amino]-6-fluoro-2-methyl-1,2,3,4-tetrahydroquinoline], the activity at 3 µM in assay [1] was 139%. The activity at 6 µM in assay [2] came out at 213%.
